Article PMC9147192, “Small Molecule Arranged Thermal Proximity Coaggregation (smarTPCA)—A Novel Approach to Characterize Protein–Protein Interactions in Living Cells by Similar Isothermal Dose–Responses” (International Journal of Molecular Sciences, 2022)
Like-named read-outs stand apart in the source and are kept apart here.

Assays:
MAPK14 [1] = tested on: MAPK14; design: method as in Seashore-Ludlow et al., Biochemistry 2018; details: MAPK14 only, ref Seashore-Ludlow et al., Biochemistry 2018, cited from earlier work
MYLK = MYLK (Homo sapiens, UniProt Q15746); assay: TPP-CCR in living HL-60 cells
MAPK14 [2] = biological target: MAPK14 (Homo sapiens, UniProt Q16539); assay: TPP-TR in living HL-60 cells; type: cell-based; details: 20 μM, single set (no replicates)
Procedure: (§1) HL-60 cells (ATCC No. CCL-240) were expanded to about […] in 80 mL cell culture medium (RPMI-1640 supplemented with 10% (v/v) FBS, 1% (v/v) penicillin-streptomycin and 1% (v/v) L-glutamine solution) and divided into four aliquots (20 mL each, 25 million cells per flask). […] The same volume of DMSO was added to the remaining aliquot serving as the vehicle (DMSO) control. After incubation (1 h, 37 °C, 5% CO2, in cell culture CO2 incubator), the cell suspensions were transferred into 50 mL conical tubes, cell number and viability were determined, and after centrifugation (300 relative centrifugal force (rcf), 3 min, room temperature (r.t.)), the supernatants were completely removed and discarded. The cells were washed using 20 mL Dulbecco’s phosphate-buffered saline (PBS), respectively, by resuspension and centrifugation (300 rcf, 3 min, r.t.). After the complete removal of the supernatants, the cells were transferred into pre-weighed 2 mL Eppendorf tubes using 0.5 mL PBS (r.t.), respectively, for resuspending. After centrifugation (300 rcf, 3 min, r.t.) and removing as much as possible of the supernatants, the cell wet weights were determined.
(§2) The suspensions were shortly centrifuged (1 s or less) using a benchtop centrifuge that was equipped with an inset for PCR tubes to release trapped air and to achieve an even liquid level without pelleting the cells. The 100 µL cell suspensions were then temperature treated by a 7 min pre-incubation at r.t., a 3 min incubation at the following different temperatures in the PCR cycler (DNA Engine Tetrad 2, lid temperature 70 °C, gradient block 1: 36–55 °C, gradient block 2: 48–67 °C), and a 3 min post-incubation at r.t. in a metal heating block for uniform heat dissipation.
(§3) The cells were lysed by four freeze/thaw cycles consisting of thawing the samples (in a heat block set to 25 °C and shaking at 1250 rpm) accompanied by mixing them several times by inversion and then shock freezing them again in liquid nitrogen. The resulting lysates were kept cold (on ice or 4 °C) from then on. After centrifugation (20,000 rcf, 30 min, 4 °C) to pellet the cell debris together with precipitated and aggregated proteins, the supernatants were recovered and, after determining the total protein concentration (Pierce 660 nm Protein Assay, BSA as standard), the resulting cell extracts containing the fraction of soluble, non-denatured proteins were shock frozen in liquid nitrogen and stored at −80 °C.
(§4) For each sample set comprising ten temperature range samples, the same volume of the cell extracts containing the fraction of soluble, non-denatured proteins was used for further analysis. Volume calculation for 30 µg total protein was performed as described for SDS-PAGE and immunoblotting. The calculated volume was respectively transferred into 0.5 mL LoBind Eppendorf tubes and evaporated to dryness using vacuum centrifugation (SpeedVac concentrator, Eppendorf, Hamburg, Germany). The dried proteins were each reconstituted in 10 µL of SDS sample buffer (containing DTT) and incubated for 30 min at 50 °C with shaking (700 rpm). 1.111 µL 1 M iodoacetamide (IAA) was added to each sample (final 100 mM IAA), then the samples were mixed and incubated for 30 min at r.t. in the dark. Sample quality was controlled by SDS-PAGE/silver staining using 0.926 µL of each sample (2.5 µg on average for the two lowest temperature samples; 26-well 4–12% Bis-Tris polyacrylamide gels, Novex NuPAGE, Thermo Scientific; 15 min at 50 V, about 1.5 h at 200 V using the recommended MOPS running buffer).

NUDT1 = NUDT1 (Homo sapiens, UniProt P36639); assay: TPP-CCR in living HL-60 cells
MAPK3 = biological target: T1, MAPK3 (Homo sapiens, UniProt P27361); assay: TPP-TR in living HL-60 cells; type: cell-based; details: 20 μM, single set (no replicates)
T1 construct: endogenous in cells; host or cells: HL-60 (ATCC CCL-240)
Procedure: as §1, §2, §3, §4

C14orf166 = C14orf166 (Homo sapiens, UniProt Q9Y224); details: living HL-60 cells, […] °C, TMT-MS
Text: Therefore, we performed TPP with compound concentration range (TPP-CCR) experiments according to published procedures. In brief, after preparing tryptic peptides from the non-denatured protein fractions (used for immunoblotting in the previous sections) applying the SP3 method, the peptides were labeled using TMT10plex, coding for inhibitor concentration, and the samples belonging to a TMT set were combined, offline high-pH fractionated, and analyzed by MS.
HL-60 cells were expanded as described above for CETSA and TPP-TR to 1.25 million cells per milliliter. […] A number of 2.5 million cells in 2 mL of medium were added to each tube and incubated (1 h, 37 °C). […]
For each sample set comprising ten compound concentration range samples, a same volume of the cell extracts containing the fraction of soluble, non-denatured proteins, corresponding to an average of 5 µg total protein, was used for further analysis. The calculated volume was respectively transferred into PCR tubes of a tube strip and supplemented with SDS sample buffer without DTT and bromophenol blue (final concentrations: 7.5% glycerol, 3% SDS, 37.5 mM Tris/HCl pH 7.0) and ddH2O to a final volume of 10 µL, respectively. […]

[3] = living HL-60 cells, […] °C, TMT-MS

MYLK, sequence (Q16539 2-360 partner limits assumed): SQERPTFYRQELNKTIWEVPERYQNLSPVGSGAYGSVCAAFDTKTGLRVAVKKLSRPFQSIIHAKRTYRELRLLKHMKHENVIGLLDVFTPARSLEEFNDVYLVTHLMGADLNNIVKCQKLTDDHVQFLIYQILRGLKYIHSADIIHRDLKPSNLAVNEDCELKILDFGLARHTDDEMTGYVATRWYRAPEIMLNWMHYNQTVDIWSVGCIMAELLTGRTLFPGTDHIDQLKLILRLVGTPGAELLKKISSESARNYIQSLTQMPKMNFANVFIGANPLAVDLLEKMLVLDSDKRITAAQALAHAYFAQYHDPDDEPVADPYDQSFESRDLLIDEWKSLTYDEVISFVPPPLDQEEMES
MYLK, sequence (Q15746 whole entry): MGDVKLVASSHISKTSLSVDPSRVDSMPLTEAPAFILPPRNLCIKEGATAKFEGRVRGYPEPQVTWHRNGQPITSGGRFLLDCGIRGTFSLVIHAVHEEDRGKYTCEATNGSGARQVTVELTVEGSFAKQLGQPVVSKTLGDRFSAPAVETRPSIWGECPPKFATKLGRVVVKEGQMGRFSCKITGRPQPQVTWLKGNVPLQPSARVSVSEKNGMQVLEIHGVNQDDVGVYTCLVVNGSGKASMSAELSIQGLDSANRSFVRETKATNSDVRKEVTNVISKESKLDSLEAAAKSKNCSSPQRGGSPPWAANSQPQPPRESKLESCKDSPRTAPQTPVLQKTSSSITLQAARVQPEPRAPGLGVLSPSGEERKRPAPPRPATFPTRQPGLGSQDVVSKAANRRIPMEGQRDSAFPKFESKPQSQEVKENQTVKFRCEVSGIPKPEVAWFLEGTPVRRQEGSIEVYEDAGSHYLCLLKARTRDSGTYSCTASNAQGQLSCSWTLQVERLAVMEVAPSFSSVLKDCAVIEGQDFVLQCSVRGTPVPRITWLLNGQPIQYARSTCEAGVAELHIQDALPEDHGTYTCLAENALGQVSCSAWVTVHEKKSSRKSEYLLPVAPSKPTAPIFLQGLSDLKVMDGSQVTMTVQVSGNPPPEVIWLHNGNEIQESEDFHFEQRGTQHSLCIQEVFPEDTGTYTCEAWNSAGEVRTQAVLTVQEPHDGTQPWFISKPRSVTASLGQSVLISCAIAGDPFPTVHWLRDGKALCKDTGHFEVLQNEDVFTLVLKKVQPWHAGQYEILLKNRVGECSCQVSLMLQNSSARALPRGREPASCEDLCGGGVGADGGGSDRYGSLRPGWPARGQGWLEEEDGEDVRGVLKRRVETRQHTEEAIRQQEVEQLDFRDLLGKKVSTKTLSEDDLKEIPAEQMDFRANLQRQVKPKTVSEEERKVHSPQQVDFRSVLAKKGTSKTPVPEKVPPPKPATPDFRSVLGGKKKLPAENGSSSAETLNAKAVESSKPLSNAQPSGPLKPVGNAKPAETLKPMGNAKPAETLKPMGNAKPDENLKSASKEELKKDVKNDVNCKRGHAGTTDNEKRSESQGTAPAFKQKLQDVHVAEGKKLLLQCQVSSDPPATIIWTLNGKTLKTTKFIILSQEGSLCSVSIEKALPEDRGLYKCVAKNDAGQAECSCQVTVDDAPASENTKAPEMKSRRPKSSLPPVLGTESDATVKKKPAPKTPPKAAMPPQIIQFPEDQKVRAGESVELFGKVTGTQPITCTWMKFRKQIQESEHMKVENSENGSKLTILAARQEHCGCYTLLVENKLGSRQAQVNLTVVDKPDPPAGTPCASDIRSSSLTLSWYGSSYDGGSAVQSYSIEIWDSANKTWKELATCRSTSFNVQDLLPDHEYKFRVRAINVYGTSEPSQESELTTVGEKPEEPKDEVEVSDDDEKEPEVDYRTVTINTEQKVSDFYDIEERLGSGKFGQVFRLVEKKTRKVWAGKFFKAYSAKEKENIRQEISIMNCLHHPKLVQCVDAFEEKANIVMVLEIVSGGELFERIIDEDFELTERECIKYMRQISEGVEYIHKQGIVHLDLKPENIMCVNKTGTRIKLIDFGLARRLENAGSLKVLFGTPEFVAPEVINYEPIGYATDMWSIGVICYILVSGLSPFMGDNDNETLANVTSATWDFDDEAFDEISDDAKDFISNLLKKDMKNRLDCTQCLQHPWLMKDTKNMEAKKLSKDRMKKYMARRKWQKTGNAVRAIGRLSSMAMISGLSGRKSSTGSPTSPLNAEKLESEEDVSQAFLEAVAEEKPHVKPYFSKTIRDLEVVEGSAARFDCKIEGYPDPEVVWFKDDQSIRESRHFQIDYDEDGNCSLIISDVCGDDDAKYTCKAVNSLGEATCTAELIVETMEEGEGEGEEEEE
T1 sequence (P27361 whole entry): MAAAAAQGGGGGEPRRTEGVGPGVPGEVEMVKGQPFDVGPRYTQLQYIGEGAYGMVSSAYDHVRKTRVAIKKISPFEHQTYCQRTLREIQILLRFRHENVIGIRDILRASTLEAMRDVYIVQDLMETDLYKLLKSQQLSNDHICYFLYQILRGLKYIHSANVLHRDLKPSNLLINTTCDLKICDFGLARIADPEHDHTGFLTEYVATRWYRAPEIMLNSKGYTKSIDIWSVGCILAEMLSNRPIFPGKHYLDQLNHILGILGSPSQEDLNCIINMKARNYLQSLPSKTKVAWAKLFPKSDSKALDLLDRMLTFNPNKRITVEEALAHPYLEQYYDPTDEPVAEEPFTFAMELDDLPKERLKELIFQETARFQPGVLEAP
MAPK14 (Homo sapiens, UniProt Q16539), sequence (Q16539 whole entry): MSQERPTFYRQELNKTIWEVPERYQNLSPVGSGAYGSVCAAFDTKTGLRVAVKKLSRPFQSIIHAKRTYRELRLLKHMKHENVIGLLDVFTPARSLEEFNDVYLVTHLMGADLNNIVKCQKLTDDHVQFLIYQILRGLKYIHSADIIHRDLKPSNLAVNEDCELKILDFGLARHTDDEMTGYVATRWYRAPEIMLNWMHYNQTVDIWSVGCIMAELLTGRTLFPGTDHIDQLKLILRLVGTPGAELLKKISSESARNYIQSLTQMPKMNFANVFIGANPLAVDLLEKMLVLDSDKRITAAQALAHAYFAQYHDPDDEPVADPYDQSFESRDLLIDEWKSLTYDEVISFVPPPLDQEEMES
C14orf166, sequence (Q9Y224 whole entry): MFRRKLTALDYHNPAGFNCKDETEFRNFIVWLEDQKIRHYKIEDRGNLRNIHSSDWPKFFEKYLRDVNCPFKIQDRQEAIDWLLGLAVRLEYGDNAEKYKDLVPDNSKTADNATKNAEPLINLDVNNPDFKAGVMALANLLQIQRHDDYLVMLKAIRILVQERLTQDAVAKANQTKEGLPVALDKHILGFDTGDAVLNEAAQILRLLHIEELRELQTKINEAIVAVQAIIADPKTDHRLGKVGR

In the case of `Cn1c(NC[C@@H](N)Cc2ccccc2)nc(-c2ccncc2)c(-c2ccc3ccccc3c2)c1=O` [AMG-548], the “pEC50, Living cells” value (MAPK14 [1]; extrapolated to 50°C and extracted from figure 3b) is listed as 8.57, the “pEC50, Living cells” value (MAPK14 [1]; extrapolated to […]°C and extracted from figure 3b) is listed as 8.23 and the EC50 (MYLK) is listed as 0.00603 µM. The “Hill slope (MYLK)” value (MYLK; [3]) was 0.44, the “thermal stabilization in melting curves (MAPK14)” value (MAPK14 [2]) was “thermal stabilizations” and the EC50 (NUDT1) was 2.29 µM. The “Hill slope (NUDT1)” value (NUDT1; [3]) was 0.77.

With `Cc1cnc(Nc2ccc(F)cc2Cl)nc1-c1c[nH]c(C(=O)N[C@H](CO)c2cccc(Cl)c2)c1` [ERK 11e] the “thermal stabilization in melting curves (MAPK3)” value (MAPK3) was “thermal stabilization”.

In the case of `C[S+]([O-])c1ccc(-c2nc(-c3ccncc3)c(-c3ccc(F)cc3)[nH]2)cc1` (stereo not drawn) [SB203580], the “Hill slope (C14orf166)” value (C14orf166) is reported as 0.33.
